Earlier results, collected in patent US20120095034A1, “PIPERIDINE DERIVATIVES USEFUL AS OREXIN RECEPTOR ANTAGONISTS” (priority 2007, published 2012).
No end group written: not given here.

Test system: rats
Details: central administration at the onset of the normal sleep period, rat

## orexin-A: ligand for the orexin-1 receptor; an agonist of the orexin receptors (QPLPDCCRQKTCSCRLYELLHGAGNHAAGILTL; ends and bridges not checked; cysteine pairing not given here; UniProt O43612 34-66, looked up)
  arousal: dose-related increase in arousal
